# Values of other authors as cited in patent publication US20070275929A1, “Composition and method for controlling the transmission of noroviruses” (THE DIAL CORPORATION, priority 2006, published 2007).
# Tested on: norovirus
# Conditions: alcohol alone
smiles,measurement,value
CCO [alcohol],contact time required to reduce norovirus populations by a factor of 3,30 min
